Assay results published in patent publication US20110098288A1, “SULFONAMIDES AS ZAP-70 INHIBITORS” (priority 2008, published 2011).
Structures can show the parent of a compound that is named as a salt.

Assays:
ZAP-70 = target: T1, ZAP-70 (Homo sapiens, UniProt P43403); experiment: ZAP-70 kinobeads assay; format: binding; details: competition with immobilized aminopyrido-pyrimidine ligand 24 in cell lysate; ZAP-70 detected by dot blot
T1 construct: endogenous in cells; host or cells: cell lysate
T1 sequence (P43403 1-619): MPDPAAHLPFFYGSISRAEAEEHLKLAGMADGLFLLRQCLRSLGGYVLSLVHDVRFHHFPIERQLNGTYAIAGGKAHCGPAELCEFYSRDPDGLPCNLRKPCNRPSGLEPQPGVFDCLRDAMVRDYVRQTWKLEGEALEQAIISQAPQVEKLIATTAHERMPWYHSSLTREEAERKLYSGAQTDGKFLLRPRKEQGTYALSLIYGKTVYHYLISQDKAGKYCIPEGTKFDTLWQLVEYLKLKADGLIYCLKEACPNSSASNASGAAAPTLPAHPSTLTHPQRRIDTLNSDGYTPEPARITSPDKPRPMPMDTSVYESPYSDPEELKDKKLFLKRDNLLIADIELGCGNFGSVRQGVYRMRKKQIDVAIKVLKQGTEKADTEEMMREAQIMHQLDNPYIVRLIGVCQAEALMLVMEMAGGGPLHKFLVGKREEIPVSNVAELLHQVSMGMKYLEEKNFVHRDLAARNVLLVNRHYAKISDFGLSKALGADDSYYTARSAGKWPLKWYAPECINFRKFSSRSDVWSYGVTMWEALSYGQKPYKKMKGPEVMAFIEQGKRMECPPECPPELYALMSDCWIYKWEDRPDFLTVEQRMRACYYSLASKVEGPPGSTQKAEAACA
Summary of the method: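 Cell lysate aliquots incubated with test compounds at various concentrations plus affinity beads carrying immobilized aminopyrido-pyrimidine ligand 24. Bead-captured proteins eluted; ZAP-70 quantified by specific antibody dot blot with infrared detection.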

Jurkat cells = experiment: Calcium release assay (Fluo-4 flow cytometry after anti-CD3 stimulation); format: cell-based; details: Homo sapiens, Jurkat cell line J77, anti-CD3 activation, read-out: IC50 (Calcium ion release in cells)
Procedure: Compounds of the present invention were tested in a Calcium release assay as described below.
The development of fluorescent probes makes it possible to measure the concentration of intracellular free Calcium ions in single living cells. Cells are first loaded with a cell-permeable Ca^2+-sensitive dye, then the test compound is added. Finally, cells are activated through the T cell receptor with an anti-CD3 antibody shortly before data acquisition on the flow cytometer. The release of Ca^2+ is measured as a function of time after cell stimulation. This protocol describes the flow cytometry method using the Fluo-3 and Fluo-4 dyes (Minta et al., 1989, J. Biol. Chem. 264(14):8171-8178) to measure the intracellular Ca^2+ concentration in Jurkat cells (see also June et al., 1997, Measurement of intracellular calcium ions by flow cytometry. In: Current Protocols in Cytometry (1997) Unit 9.8.1-9.8.19, John Wiley & Sons, Inc.).
In general, cells should be handled in the shortest time possible to assure their stability. Therefore the preparation of all materials in advance is highly recommended as well as using any incubation or centrifugation time to prepare the next steps (e.g. preparing compound dilution or starting the flow cytometer).
1) Prepare a work plan indicating the number of samples to be analyzed including controls. 2) Cell harvest: Centrifuge 50 to 100 ml of a Jurkat cell culture for 5 minutes at 1100 rpm. Discard the supernatant, pool the resuspended cell pellets in a single 50 ml Falcon tube, and fill up to 50 ml with PBS—CaCl2 (without FCS). Centrifuge again sample again. 3) Resuspend cell pellet with PBS—CaCl2 (without FCS) to achieve a concentration not lower than 10×10^6 cells/ml. Prepare an adequate dilution to evaluate the cell concentration and count the cells. 4) Separate the volume of cells needed to be loaded (for example […] for 20 samples) in a 50 ml Falcon tube. Fill up with PBS—CaCl2 to 900 μl for 107 cells. 5) Prepare in the dark a 1:1 mix of FLUO-4 (1 mM)+Pluronic F-127 (20%). 5 μl of Fluo-4 are needed per 107 cells. 6) Prepare a 1/10 dilution of this mix with PBS—CaCl2 (in the dark; for example 5 μl Fluo-4+5 μl F-127 completed to 100 μl). 7) Add the dye solution to the cells. […] 8) Incubate the sample for 30 minutes in a cell incubator (37° C., 5% CO2). Mix from time to time. 9) During this time prepare the adequate test compound dilution in PBS—CaCl2 (with 10% FCS). The solution should be 10 times more concentrated than the desired final concentration. Vortex each dilution. Prepare also the antibody dilutions: anti-CD3 (1/200) and GAM (1/25). 10) Label FACS tubes and distribute in the corresponding tube 30 μl of the compound dilution or only buffer for the control tubes. 11) After 30 minutes of incubation wash the cells twice in PBS—CaCl2 (with 10% FCS). During the washing steps make sure that the flow cytometer is already “ON” in order to warm the laser. 12) Resuspend the cell pellet in PBS—CaCl2 (with 10% FCS) at a concentration of 1.5×10^6 cells/ml. 13) Distribute 300 μl of cell suspension into the FACS tubes and mix gently. The compound incubation is starting. Keep samples at room temperature in the dark. 14) Open the settings of the cytometer. It is advised to have a template ready which is used for all measurements. Settings of the machine should also be the same from one experiment to the other which permits to evaluate the reproducibility of the cell preparation. 15) In Setup modus control your cell preparation on the cytometer. Cells should fit in the pre-defined gates. 16) During the compound incubation time, check also that cells are responding to the anti-CD3 activation as expected. Set a timer at 8 sec. Add 6 μl of anti-CD3 dilution (0.2 μg/ml final) and mix gently. Add 1 μl of GAM dilution (0.75 μg/ml final) and mix gently. Incubate the samples in water bath at 37° C. while starting timer. After 8 seconds of incubation, acquire data at medium speed for 200 seconds. […]

| SMILES | IC50 (ZAP-70) [nM] | IC50 (Jurkat cells) [nM] |
| --- | --- | --- |
| COc1cc(Nc2ncc(F)c(Nc3ccccc3NS(C)(=O)=O)n2)cc(OCCN2CCCC2)c1 [Example 94, N-(2-(5-fluoro-2-(3-methoxy-5-(2-(pyrrolidin-1-yl)ethoxy)phenylamino)pyrimidin-4-ylamino)phenyl)methanesulfonamide formate salt] | 100 to 1000 | 100 to 1000 |
| CS(=O)(=O)Nc1ccccc1Nc1nc(Nc2cccc(OCCN3CCCC3=O)c2)ncc1Cl [Example 130, N-(2-(5-chloro-2-(3-(2-(2-oxopyrrolidin-1-yl)ethoxy)phenylamino)pyrimidin-4-ylamino)phenyl)methanesulfonamide] | 100 to 1000 | < 100 |
| CNCCS(=O)(=O)Nc1ccccc1Nc1nc(Nc2cc(OC)c(OC)c(OC)c2)ncc1F [Example 62, N-(2-(5-fluoro-2-(3,4,5-trimethoxyphenylamino)pyrimidin-4-ylamino)phenyl)-2-(methylamino)ethanesulfonamide] | 1000 to 10000 | 100 to 1000 |
| CN1CCCCC1COc1cccc(Nc2ncc(F)c(Nc3ccccc3NS(C)(=O)=O)n2)c1 (centres unmarked) [Example 97, N-(2-(5-fluoro-2-(3-((1-methylpiperidin-2-yl)methoxy)phenylamino)pyrimidin-4-ylamino)phenyl)methanesulfonamide] | 100 to 1000 | < 100 |
| CCNC(=O)COc1cccc(Nc2ncc(Cl)c(Nc3ccccc3NS(C)(=O)=O)n2)c1 [Example 151, 2-(3-(5-chloro-4-(2-(methylsulfonamido)phenylamino)pyrimidin-2-ylamino)phenoxy)-N-ethylacetamide 2,2,2-trifluoroacetate] | < 100 | < 100 |
| COc1ccc(Nc2nc(Nc3cc(OC)c(OC)c(OC)c3)ncc2Br)c(NS(C)(=O)=O)c1 [Example 178, N-(2-(5-bromo-2-(3,4,5-trimethoxyphenylamino)pyrimidin-4-ylamino)-5-methoxyphenyl)methanesulfonamide] | < 100 | 100 to 1000 |
| CS(=O)(=O)Nc1ccccc1Nc1nc(Nc2cccc(O)c2)ncc1F [Example 76, N-(2-(5-fluoro-2-(3-hydroxyphenylamino)pyrimidin-4-ylamino)phenyl)methanesulfonamide] | 100 to 1000 | 100 to 1000 |
| CS(=O)(=O)Nc1ccccc1Nc1nc(Nc2ccc(OCCN3CCOCC3)cc2)ncc1F [Example 86, N-(2-(5-fluoro-2-(4-(2-morholinoethoxy)phenylamino)pyrimidin-4-ylamino)phenyl)methanesulfonamide] | 100 to 1000 | 100 to 1000 |

Continued, values first:

| IC50 (ZAP-70) [nM] | IC50 (Jurkat cells) [nM] | SMILES |
| --- | --- | --- |
| 100 to 1000 | 100 to 1000 | COc1cc(Nc2ncc(F)c(Nc3cccc(F)c3NS(C)(=O)=O)n2)cc(OC)c1OC [Example 183, N-(2-fluoro-6-(5-fluoro-2-(3,4,5-trimethoxyphenylamino)pyrimidin-4-ylamino)phenyl)methanesulfonamide] |
| 100 to 1000 | 100 to 1000 | COc1cc(Nc2ncc(F)c(Nc3cccc(C)c3NS(C)(=O)=O)n2)cc(OC)c1OC [Example 116, N-(2-(5-fluoro-2-(3,4,5-trimethoxyphenylamino)pyrimidin-4-ylamino)-6-methylphenyl)methanesulfonamide] |
| 100 to 1000 | < 100 | CCN(c1ccccc1Nc1nc(Nc2cc(OC)c(OC)c(OC)c2)ncc1F)S(C)(=O)=O [Example 154, N-ethyl-N-(2-(5-fluoro-2-(3,4,5-trimethoxyphenylamino)pyrimidin-4-ylamino)phenyl)methanesulfonamide] |
| 100 to 1000 | 100 to 1000 | CC(=O)c1cccc(Nc2ncc(F)c(Nc3ccccc3NS(C)(=O)=O)n2)c1 [Example 14, N-(2-(2-(3-acetylphenylamino)-5-fluoropyrimidin-4-ylamino)phenyl)methanesulfonamide] |
| < 100 | < 100 | CCN(CC)CCOc1cccc(Nc2ncc(Cl)c(Nc3ccccc3NS(C)(=O)=O)n2)c1 [Example 126, N-(2-(5-chloro-2-(3-(2-(diethylamino)ethoxy)phenylamino)pyrimidin-4-ylamino)phenyl)methanesulfonamide] |
